Data: patent US8436186B2, “Thiazolyl piperidine derivatives” (Merck Patent Gesellschaft mit beschrankter Haftung, priority 2008, dated 2013)
pIC50: −log10 of the molar value.

What follows are compounds tested against SphK1 (Homo sapiens, UniProt Q9NYA1) (assay: SphK1 384-well flashplate kinase assay). Conditions: enzyme assay.
Type: biochemical
Procedure: The kinase assay is carried out as a 384-well flashplate assay.
5 nM modified SphK1, 800 nM omega-biotinyl-D-erythro-sphingosine and 1 μM ATP (with 0.3 μCi of ^33P-ATP/well) are incubated in a total volume of 50 μl (25 mM HEPES, 5 mM MgCl2, 1 mM dithiothreitol, 0.01% of Brij35, 0.1% of BSA (fatty acid-free), pH 7.4) without or with test substance (5-10 concentrations) at 30° C. for 120 min. The reaction is terminated using 25 μl of 200 mM EDTA solution, filtered off with suction at room temperature after 30 min, and the cavities are washed 3 times with 100 μl of 0.9% NaCl solution. The non-specific proportion of the kinase reaction (blank) is determined using 0.5 mM NaCl. Radioactivity is measured in topcount. IC50 values are calculated using RS1.

Sequence of SphK1 (Q9NYA1 whole entry): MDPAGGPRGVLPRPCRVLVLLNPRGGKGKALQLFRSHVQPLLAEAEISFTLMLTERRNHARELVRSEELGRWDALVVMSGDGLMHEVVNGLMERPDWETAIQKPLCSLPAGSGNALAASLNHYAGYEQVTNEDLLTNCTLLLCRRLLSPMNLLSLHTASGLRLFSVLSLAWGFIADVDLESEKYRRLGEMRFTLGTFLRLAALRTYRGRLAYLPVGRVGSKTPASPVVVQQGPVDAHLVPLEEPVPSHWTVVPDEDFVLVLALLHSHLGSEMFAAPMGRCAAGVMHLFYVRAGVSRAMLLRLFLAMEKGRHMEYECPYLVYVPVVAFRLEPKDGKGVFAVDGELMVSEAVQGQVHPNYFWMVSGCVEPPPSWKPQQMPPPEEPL

SMILES | pIC50
CN1CCCC(COC(=O)N2CCC(c3nc(-c4ccc5c(c4)C(C)(C)CCC5(C)C)cs3)CC2)C1 (stereo not shown) [Compound A50] | < 5.00
NC(=O)CN1CCC(c2nc(-c3ccc4c(c3)CCCC4)cs2)CC1 [Compound A3] | < 5.00
CC1(C)CCC(C)(C)c2cc(-c3csc(C4CCN(C(=O)OCCN5CCCC5)CC4)n3)ccc21 [Compound A49] | < 5.00
CC1(C)CCC(C)(C)c2cc(-c3csc(C4CCN(C(=O)[C@H]5C[C@H](O)CN5)CC4)n3)ccc21 [Compound A68] | 5.00 to 6.00
CN(C)CCN1CCC(c2nc(-c3ccc4c(c3)C(C)(C)CCC4(C)C)cs2)CC1 [Compound A4] | 5.00 to 6.00
CC1(C)CCC(C)(C)c2cc(-c3csc(C4CCN(Cc5ccncc5)CC4)n3)ccc21 [Compound A74] | 5.00 to 6.00
OC[C@@H](O)CN1CCC(c2nc(-c3ccc4c(c3)CCCC4)cs2)CC1 [Compound A14] | 5.00 to 6.00
CCN1CCCC(N2CCC(c3nc(-c4ccc5c(c4)C(C)(C)CCC5(C)C)cs3)CC2)C1 (stereo not shown) [Compound A2, 1′-ethyl-4-[4-(5,5,8,8-tetramethyl-5,6,7,8-tetrahydronaphthalen-2-yl)thiazol-2-yl]-[1,3]bipiperidinyl] | 5.00 to 6.00
Cc1cc2c(cc1-c1csc(C3CCNCC3)n1)C(C)(C)CCC2(C)C [Compound C5] | 5.00 to 6.00
CN(C)CCOCCOC(=O)N1CCC(c2nc(-c3ccc4c(c3)C(C)(C)CCC4(C)C)cs2)CC1 [Compound A47] | 5.00 to 6.00
CCN(CC)CCNC(=O)N1CCC(c2nc(-c3ccc4c(c3)C(C)(C)CCC4(C)C)cs2)CC1 [Compound A45] | < 5.00
CCn1nccc1CN1CCC(c2nc(-c3ccc4c(c3)C(C)(C)CCC4(C)C)cs2)CC1 [Compound B11] | 5.00 to 6.00

Results, then the compound that gave them:

pIC50 | SMILES
5.00 to 6.00 | CC1(C)CCC(C)(C)c2cc(-c3csc(C4CCN(CC5CNC(=O)O5)CC4)n3)ccc21 (stereo not shown) [Compound A27]
6.00 to 8.00 | c1cc2c(cc1-c1csc(C3CCNCC3)n1)CCCC2 [Compound C6]
6.00 to 8.00 | CC1(C)CCC(C)(C)c2cc(-c3csc(C4CCN(CCN)CC4)n3)ccc21 [Compound A81]
6.00 to 8.00 | CN1CCC(c2nc(-c3ccc4c(c3)C(C)(C)CCC4(C)C)cs2)CC1 [Compound A33]
5.00 to 6.00 | Cc1noc(C)c1CN1CCC(c2nc(-c3ccc4c(c3)C(C)(C)CCC4(C)C)cs2)CC1 [Compound B12]
5.00 to 6.00 | CC1(C)CCC(C)(C)c2cc(-c3csc(C4CCN(C(=O)[C@@H](N)Cc5cnc[nH]5)CC4)n3)ccc21 [Compound A63, (S)-2-amino-3-(3H-imidazol-4-yl)-1-{4-[4-(5,5,8,8-tetramethyl-5,6,7,8-tetrahydronaphthalen-2-yl)thiazol-2-yl]piperidin-1-yl}-propan-1-one]
5.00 to 6.00 | CC1(C)CCC(C)(C)c2cc(-c3csc(C4CCN(Cc5ccc(CO)o5)CC4)n3)ccc21 [Compound B9]
6.00 to 8.00 | CC1(C)CCC(C)(C)c2cc(-c3csc(C4CCN(CCCN5CCCCC5)CC4)n3)ccc21 [Compound A28]
6.00 to 8.00 | CC1(C)CCC(C)(C)c2cc(-c3csc(C4CCN(Cc5ncc[nH]5)CC4)n3)ccc21 [Compound B13]
5.00 to 6.00 | CC(CN(C)C)N1CCC(c2nc(-c3ccc4c(c3)C(C)(C)CCC4(C)C)cs2)CC1 (stereo not shown) [Compound A29]
